Legend:
[1] = tested on: H1650; assay: MTT cell viability assay, H1650; type: cell-based, human; settings: 48 h
Protocol: (§1) Cells were seeded at a density of 1 × 10^4 cells per well in 96-well plates. The following day, these cells were washed with PBS and exposed to different concentrations of testing compounds in culture medium for 48 h. MTT solution (10 μl at 5 mg/ml) was added to each well. After 4 h of incubation at 37°C, the medium was removed, and the insoluble precipitate was dissolved in 100 μl DMSO (Sigma, St. Louis, MO, USA). The absorbance of the dissolved solution at 490 nm was measured using a microplate reader (TECAN A-5082; Megllan, Austria). Cell viability percentages were calculated by dividing the mean optical density (OD) of compound-containing wells by that of the control wells. Each experiment was replicated three times. The IC50 of testing drugs was calculated with Statistical Product and Service Solutions software (SPSS, version 16.0).

[2] = tested on: VEGF, p53, and Bax expression in the xenograft A549 and H292 lung tumor tissue; assay: Immunohistochemistry of xenograft tumor sections; type: in vivo, mice
Protocol: All tumor tissues were harvested and fixed in 4% buffered formalin. After 72 h, tumor tissues were embedded in paraffin and cut into 4 μm sections for immunohistochemistry assays. The streptavidin–biotin complex (SABC) method was used for immunohistochemical staining. Lung tissue sections from mice with no intervention were used as controls. The section slides were baked in an oven at 60°C for 1 h, washed in xylene, and hydrated in different concentrations of alcohol. Subsequently, endogenous peroxidase activity was quenched with 3% hydrogen peroxide for 10 min. To unmask the antigen, the slides were submerged in citrate buffer (0.01 M, pH 6.0) at 95°C for 5 min. The slides were blocked for 20 min with normal goat serum blocking solution. Primary antibodies were incubated at 4°C overnight. Primary antibody dilutions were as follows: 1:200 for VEGF, p53, and Bax. Immunocomplexes were visualized with 3,3′-diaminobenzidine (DAB), and the density was measured with the DP2-BSW software (Olympus, Tokyo, Japan).

[3] = tested on: H1299; assay: MTT cell viability assay, H1299; type: cell-based, human; settings: 48 h
Protocol: as §1

[4] = tested on: Calu-3; assay: MTT cell viability assay, Calu-3; type: cell-based, human; settings: 48 h
Protocol: as §1

[5] = Pharmacokinetic and toxicokinetic characterization in Beagle dogs; type: in vivo; settings: single dose 10, 20, 40 mg/kg
Description: Furthermore, AI was employed to evaluate the accumulated toxicity of the two complexes.

[6] = tested on: A549, NCI-H292, NCI-H460, and LTEP-A-2 xenograft models; assay: ED50 (50% reduction of xenograft tumor volume) in nude mice; type: in vivo; settings: dose reducing xenograft tumor volume by 50%; average over A549, NCI-H292, NCI-H460, and LTEP-A-2 xenograft models
Protocol: After injection, the animals’ condition was monitored every day for over 1 week by an observer who was blinded to the dose and drug allocation.
Estimates for ED50 and LD50 were calculated through nonlinear regression, data were fitted to a sigmoidal dose-response relationship in Prism (version 4.0a; GraphPad Software, Inc., San Diego, CA). The data were fitted to the equation:
Y=Ymin+Ymax−Ymin/1+10^(LogED50−X)∗HillSlope
where X is the logarithm of concentration, and Y is the response.

[7] = tested on: A549/DDP; assay: MTT cell viability assay, A549/DDP; type: cell-based, human; settings: A549/DDP (DDP-resistant), 48 h
Protocol: as §1

[8] = tested on: A549 xenograft tumors; assay: A549 xenograft tumor growth in nude mice; type: in vivo; settings: 30, 60, 120 mg/kg, tail vein every 3 days
Protocol: (§3) Cells in logarithmic growth were washed with PBS and suspended in serum-free medium. Portions of the suspension (5 × 10^6 cells in 0.1 ml/mouse) were mixed at a 3:1 ratio with Matrigel basement membrane matrix and injected subcutaneously into the mice. Following 2 weeks of growth, tumor tissues were cut into multiple 2 × 2 × 2 mm^3 pieces and implanted using a range trocar subcutaneously (s.c. injection) into the left forepaw armpit of each mouse ([Jiang et al., 2017]). Treatment with pharmacology was started when the tumors reached an average volume of 100–200 mm^3. The mice were randomly divided into six groups (n = 14/group).
(§4) Body weight and tumor size were assessed every 3 days. Tumor size was measured using a caliper, the volumes were calculated according to the following standard formula: V = (L × W^2)/2 (V = tumor volume, L = largest diameter of tumor, W = smallest diameter of tumor). On day 25, all mice were sacrificed by cervical dislocation, and the tumors were removed and weighed.

[9] = tested on: ICR mice; assay: General neurotoxicity observation in ICR mice; type: in vivo; settings: i.v.
Description: The animals were observed daily for any evident symptoms of sickness. Changes in their appearance (e.g., kyphosis and altered grooming), behavior (altered nesting) and activity (altered exploring) were monitored for general neurotoxicity assessment.

[10] = tested on: LTEP-A-2; assay: MTT cell viability assay, LTEP-A-2; type: cell-based, human; settings: 48 h
Protocol: as §1

[11] = tested on: A549 cells; assay: Cell cycle by PI flow cytometry, A549; type: cell-based, human; settings: diplatin 50 μM, DDP 5 μM, CBP 100 μM
Protocol: (§2) Then, the cells were trypsinized, washed with PBS, and fixed in 1.5 ml 95% ethanol and left at 4°C overnight. They were then incubated with RNase and stained with propidium iodide (PI) (Multi Sciences Biotech Co., Ltd). PI absorbance was determined using a Cytomics FC500 Flow Cytometer (Beckman Coulter, USA).

[12] = tested on: H460; assay: MTT cell viability assay, H460; type: cell-based, human; settings: 48 h
Protocol: as §1

[13] = tested on: BEAS-2B normal human lung epithelial cell line; assay: MTT cell viability assay, BEAS-2B; type: cell-based
Protocol: as §1

[14] = tested on: H292 cells; assay: Cell cycle by PI flow cytometry, H292; type: cell-based, human; settings: diplatin 50 μM, DDP 5 μM, CBP 100 μM
Protocol: as §2

[15] = Body weight and tolerability of A549 and H292 xenograft mice; type: in vivo
Protocol: as §3, §4

CCN(CC)CCCCC1C(=O)[O][Pt][O]C1=O.N[C@@H]1CCCC[C@H]1N.O=P(O)(O)O [Diplatin]
IC50 [1]: 36.6 µM
VEGF expression in tumor sections compared to the control ([2]; 120 mg/kg): lower expression of VEGF
p53 and Bax expression in the A549 and H292 tumor sections ([2]; 120 mg/kg): significantly enhanced
effect on p53 expression in tumor sections compared with DDP and CBP treatment ([2]; diplatin 120 mg/kg vs DDP and CBP): nearly two-fold more potent
IC50 [3]: 57.5 µM
IC50 [4]: 161 µM
time of maximum platinum levels in the plasma [5]: 0.33 h
Mice ED50 [6]: 52.0 mg/kg
IC50 [7]: 133 µM
effect on growth of A549 xenograft tumors [8]: dose-dependently inhibited the growth
animals showing signs of mild kyphosis and piloerection ([9]; 240 mg/kg twice a week for 4 weeks): approximately 20%
changes in behavior (altered nesting) and activity (altered exploring) ([9]; 60, 120, or 240 mg/kg twice a week for 4 weeks): no notable changes
IC50 [10]: 24.6 µM
effect on cell cycle distribution [11]: significant accumulation of cells in G2/M phase
IC50 [12]: 40.7 µM
IC50 ([13]; BEAS-2B normal lung epithelial cells, MTT, 48 h): 47.9 µM
suppression of the viability of BEAS-2B cells compared to DDP ([13]; vs DDP): threefold less suppression
effect on cell cycle distribution [14]: failed to arrest any portion of the cell cycle
effect on body weight ([15]; diplatin 30 mg/kg and 60 mg/kg): no observable effects
reduction of body weight by day 25 ([15]; diplatin 120 mg/kg, CBP 60 mg/kg, every 3 days i.v.): 14.38%
